Measurements from US4160829A, “Antibacterial 1,2,4-oxadiazolylacetamido cephalosporins” (Gist-Brocades N.V., priority 1972, dated 1979).

Key:
[1] = system: Bac.Subt.ATCC 6633; assay: agar serial dilution test; assay type: cell-based, Bacillus subtilis; conditions: Bacillus subtilis, ATCC6633, 24 h, agar serial dilution, 24 hours, 37° C.; read-out: minimal inhibitory concentration (MIC)
[2] = system: Staph.aureus A 321; assay: agar serial dilution test; assay type: cell-based, Staphylococcus aureus; conditions: Staphylococcus aureus, A321, 24 h, agar serial dilution, 24 hours, 37° C.; read-out: minimal inhibitory concentration (MIC)
[3] = system: Staph.aureus A 2000; assay: agar serial dilution test; assay type: cell-based, Staphylococcus aureus; conditions: Staphylococcus aureus, A2000, 24 h, agar serial dilution, 24 hours, 37° C.; read-out: minimal inhibitory concentration (MIC)
[4] = system: Staph.aureus A 2001; assay: agar serial dilution test; assay type: cell-based, Staphylococcus aureus; conditions: Staphylococcus aureus, A2001, 24 h, agar serial dilution, 24 hours, 37° C.; read-out: minimal inhibitory concentration (MIC)
[5] = system: Strep. faec. L 80; assay: agar serial dilution test; assay type: cell-based, Streptococcus faecalis; conditions: Enterococcus faecalis; agar serial dilution, 24 hours, 37° C.; read-out: minimal inhibitory concentration (MIC)
[6] = system: Dipl.pneum. L 54; assay: agar serial dilution test; assay type: cell-based, Diplococcus pneumoniae; conditions: Streptococcus pneumoniae; agar serial dilution, 24 hours, 37° C.; read-out: minimal inhibitory concentration (MIC)
[7] = system: Past.multo. A 723; assay: agar serial dilution test; assay type: cell-based, Pasteurella multocida; conditions: Pasteurella multocida; agar serial dilution, 24 hours, 37° C.; read-out: minimal inhibitory concentration (MIC)
[8] = system: Kleb.pneum. A 809; assay: agar serial dilution test; assay type: cell-based, Klebsiella pneumoniae; conditions: Klebsiella pneumoniae; agar serial dilution, 24 hours, 37° C.; read-out: minimal inhibitory concentration (MIC)
[9] = system: Esch.coli U 20; assay: agar serial dilution test; assay type: cell-based, Escherichia coli; conditions: Escherichia coli, U20; agar serial dilution, 24 hours, 37° C.; read-out: minimal inhibitory concentration (MIC)
[10] = system: Pseud.aerug. H 10; assay: agar serial dilution test; assay type: cell-based; conditions: agar serial dilution, 24 hours, 37° C.; read-out: minimal inhibitory concentration (MIC)
[11] = system: Pseud.aerug. Wyeth A 1058; assay: agar serial dilution test; assay type: cell-based; conditions: agar serial dilution, 24 hours, 37° C.; read-out: minimal inhibitory concentration (MIC)
[12] = system: Prot.rettg. A 821; assay: agar serial dilution test; assay type: cell-based, Proteus rettgeri; conditions: Providencia rettgeri, 24 h, agar serial dilution, 24 hours, 37° C.; read-out: minimal inhibitory concentration (MIC)
[13] = system: Prot.mirab. H 3; assay: agar serial dilution test; assay type: cell-based, Proteus mirabilis; conditions: Proteus mirabilis; agar serial dilution, 24 hours, 37° C.; read-out: minimal inhibitory concentration (MIC)
[14] = system: Prot.mirab. A 1200; assay: agar serial dilution test; assay type: cell-based, Proteus mirabilis; conditions: Proteus mirabilis, 24 h, agar serial dilution, 24 hours, 37° C.; read-out: minimal inhibitory concentration (MIC)
[15] = system: Prot.morg. 2241; assay: agar serial dilution test; assay type: cell-based; conditions: 24 h, agar serial dilution, 24 hours, 37° C.; read-out: minimal inhibitory concentration (MIC)
[16] = system: Strep.haem A 1088; assay: agar serial dilution test; assay type: cell-based, Streptococcus haemolyticus; conditions: Streptococcus, A1088, 24 hours, 37° C., read-out: minimal inhibitory concentration (MIC)
[17] = system: Sarc. lutea ATCC 9341; assay: agar serial dilution test; assay type: cell-based; conditions: Micrococcus luteus, ATCC9341, 24 hours, 37° C., read-out: minimal inhibitory concentration (MIC)
[18] = system: Bruc. Suis A 2126; assay: agar serial dilution test; assay type: cell-based; conditions: Brucella suis, 24 h, read-out: minimal inhibitory concentration (MIC)
[19] = system: Salm.typh. R 172; assay: agar serial dilution test; assay type: cell-based; conditions: 24 h, read-out: minimal inhibitory concentration (MIC)
[20] = system: Staph.aureus A 355; assay: micro serial dilution test; assay type: cell-based, Staphylococcus aureus; conditions: Staphylococcus aureus, A355; micro serial dilution (in brackets), about 18 hours, 30° C. or 37° C.; penicillinase-producing strain; read-out: minimal inhibitory concentration (MIC)
[21] = system: Staph.aureus A 2000; assay: micro serial dilution test; assay type: cell-based, Staphylococcus aureus; conditions: Staphylococcus aureus, A2000, 18 h, micro serial dilution (in brackets), about 18 hours, 30° C. or 37° C.; read-out: minimal inhibitory concentration (MIC)
[22] = system: Prot.mirab. A 1200; assay: micro serial dilution test; assay type: cell-based; conditions: Proteus mirabilis; micro serial dilution (in brackets), about 18 hours, 30° C. or 37° C.; read-out: minimal inhibitory concentration (MIC)
[23] = system: Haem.Suis A 2096; assay: micro serial dilution test; assay type: cell-based; conditions: micro serial dilution (in brackets), about 18 hours, 30° C. or 37° C.; read-out: minimal inhibitory concentration (MIC)
[24] = system: Klebsiella pneumoniae A 265; assay: protection test; assay type: in vivo; conditions: i.p.
[25] = system: Proteus mirabilis A 1200; assay: protection test; assay type: in vivo; conditions: s.c.
[26] = system: Staph.aureus A 355; assay: agar serial dilution test; conditions: Staphylococcus aureus, A355, 24 h, read-out: minimal inhibitory concentration (MIC), agar serial dilution, 24 hours, 37° C.; penicillinase-producing strain

Cc1noc(CC(=O)N[C@@H]2C(=O)N3C(C(=O)O)=C(CSc4nnnn4C)CS[C@H]23)n1 [Compound G, sodium-7[(3-methyl-1,2,4-oxadiazol-5-yl)-acetamido] 3 [1-methyl-tetrazol-5-yl-mercaptomethyl] 3-cephem-4-carboxylate]
MIC [1]: 0.25 µg/mL | MIC [2]: 0.25 µg/mL | MIC [3]: 0.75 µg/mL | MIC [4]: 0.5 µg/mL | MIC [5]: 50 µg/mL | MIC [6]: 0.5 µg/mL | MIC [7]: 1 µg/mL | MIC [8]: 0.5 µg/mL | MIC [9]: 0.75 µg/mL | MIC [10]: 100 µg/mL | MIC [11]: 100 µg/mL | MIC [12]: 0.25 µg/mL | MIC [13]: 25 µg/mL | MIC [14]: 25 µg/mL | MIC [15]: 100 µg/mL | MIC [16]: 0.25 µg/mL | MIC [17]: 0.5 µg/mL | MIC [18]: 1 µg/mL | MIC [19]: 1.5 µg/mL | MIC [20]: 0.9 µg/mL | MIC [21]: 0.6 µg/mL | MIC [22]: 15 µg/mL | MIC [23]: 0.23 µg/mL | ED50 ([24]; Klebsiella pneumoniae, A265, ip, protection test): 86 mg/kg | Potency ratio ([24]; reference Cefalotin): 1,09 | ED50 ([25]; Proteus mirabilis, A1200, sc, protection test, read-out: ED50): 8.7 mg/kg | Potency ratio ([25]; reference Cefalotin): 1,4 | MIC [26]: 1 µg/mL
